Measured values taken from US11591355B2 (Peloton Therapeutics, Inc., priority 2017, dated 2023).

What was measured:
Human CD73 = molecular target: T1, Human CD73 (Homo sapiens, UniProt P21589); assay: CD73 Enzyme Assay; type: biochemical; conditions: 0.25 nM hCD73, 25 μM AMP, kinetic read at 360 nm; read-out: CD73 Enzyme Assay IC50
T1 construct: purchased R&D Systems; host or cells: CHO cells
T1 sequence (P21589 27-549): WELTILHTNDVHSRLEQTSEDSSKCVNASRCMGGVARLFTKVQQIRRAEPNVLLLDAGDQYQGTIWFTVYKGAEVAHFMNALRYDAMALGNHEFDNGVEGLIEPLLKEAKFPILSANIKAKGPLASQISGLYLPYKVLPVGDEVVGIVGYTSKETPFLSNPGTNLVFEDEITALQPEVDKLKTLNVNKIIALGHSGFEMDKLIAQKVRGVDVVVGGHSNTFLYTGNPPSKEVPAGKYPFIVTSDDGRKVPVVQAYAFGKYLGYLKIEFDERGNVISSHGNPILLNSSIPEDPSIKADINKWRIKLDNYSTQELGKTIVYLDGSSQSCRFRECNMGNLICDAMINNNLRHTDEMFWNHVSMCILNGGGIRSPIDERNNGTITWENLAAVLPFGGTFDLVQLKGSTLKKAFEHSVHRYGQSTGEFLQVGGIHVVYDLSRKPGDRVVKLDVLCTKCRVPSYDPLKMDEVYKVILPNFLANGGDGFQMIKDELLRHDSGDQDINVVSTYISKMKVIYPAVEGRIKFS

[1] = molecular target: T2, CD73 on U138 human neuroglioma cells (Homo sapiens, UniProt P21589); assay: CD73 Cell-Based Assay; conditions: U138 cells, AMP substrate, 2 hours at 37° C., inorganic phosphate by malachite green
T2 construct: U138 cells were obtained from ATCC and cultured in DMEM with 10% FBS; host or cells: U138 human neuroglioma cells
T2 sequence (P21589 27-549): T1 sequence (P21589 27-549)
How it was run: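 Whole U138 cells washed free of phosphate were incubated with 200 μM AMP (mixture concentration before equal-volume addition) plus compound in HEPES-buffered saline, pH 7.4, for 2 h at 37 °C, 5% CO2. Adenosine-forming activity read as inorganic phosphate released into supernatant by malachite green.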

Structure (SMILES)	IC50 (Human CD73) [nM]	IC50 [1] [nM]
C[C@@H](Nc1nc(C#N)nc2c1ccn2[C@@H]1O[C@H](COCP(=O)(O)O)[C@@H](O)[C@H]1O)c1ccccc1F [Compound 88, [(2R,3S,4R,5R)-5-[2-cyano-4-[[(1R)-1-(2-fluorophenyl)ethyl]-amino]pyrrolo[2,3-d]-pyrimidin-7-yl]-3,4-dihydroxy-tetrahydro-furan-2-yl]methoxy-methylphosphonic acid]	< 10	< 10
C[C@H](Nc1nc(Cl)nc2c1ccn2[C@@H]1O[C@H](COCP(=O)(O)O)[C@@H](O)[C@H]1O)c1ccc(F)cc1 [Compound 68, [(2R,3S,4R,5R)-5-[2-chloro-4-[[(1S)-1-(4-fluorophenyl)ethyl]-amino]pyrrolo[2,3-d]-pyrimidin-7-yl]-3,4-dihydroxy-tetrahydro-furan-2-yl]methoxy-methylphosphonic acid]	10 to 100	10 to 100
O=P(O)(O)CS(=O)(=O)C[C@H]1O[C@@H](n2ccc3c(NC4CCCCC4)nc(Cl)nc32)[C@H](O)[C@@H]1O [Compound 174, [(2S,3S,4R,5R)-5-[2-chloro-4-(cyclohexyl-amino)pyrrolo[2,3-d]-pyrimidin-7-yl]-3,4-dihydroxy-tetrahydro-furan-2-yl]methyl-sulfonylmethylphos-phonic acid]	< 10	< 10
C[C@@H](Nc1nc(Cl)nc2c1ccn2C1O[C@H](COCP(=O)(O)O)[C@@H](O)[C@H]1O)c1ccc(C2CC2)cc1 (stereo partly drawn) [Compound 197, [(2R,3S,4R,5R)-5-[2-chloro-4-[[(1R)-1-(4-cyclopropylphenyl)-ethyl]amino]pyrrolo-[2,3-d]pyrimidin-7-yl]-3,4-dihydroxy-tetra-hydrofuran-2-yl]-methoxymethylphos-phonic acid]	< 10	< 10
O=P(O)(O)CP(=O)(O)OC[C@H]1O[C@@H](n2ccc3c(NC4CCCC4)nc(Cl)nc32)[C@H](O)[C@@H]1O [Compound 229]	< 10	< 10
C[C@H](c1ccccc1)N(C)c1nc(Cl)nc2c1ccn2[C@@H]1O[C@H](COCP(=O)(O)O)[C@@H](O)[C@H]1O [Compound 124, [(2R,3S,4R,5R)-5-[2-chloro-4-[methyl-[(1R)-1-phenylethyl]-amino]pyrrolo[2,3-d]-pyrimidin-7-yl]-3,4-dihydroxy-tetrahydro-furan-2-yl]methoxy-methylphosphonic acid]	< 10	< 10
C[C@H](Nc1nc(C#N)nc2c1ncn2[C@@H]1O[C@H](COCP(=O)(O)O)[C@@H](O)[C@H]1O)c1ccccc1 [Compound 36, [(2R,3S,4R,5R)-5-[2-cyano-6-[[(1S)-1-phenylethyl]amino]purin-9-yl]-3,4-dihydroxy-tetrahydrofuran-2-yl]methoxymethylphosphonic acid; 2,2,2-trifluoroacetic acid]	10 to 100	10 to 100
O=P(O)(O)COC[C@H]1O[C@@H](n2cnc3c(OC4CCCC4)ncnc32)[C@H](O)[C@@H]1O [Compound 55, [(2R,3S,4R,5R)-5-[6-(cyclopentoxy)purin-9-yl]-3,4-dihydroxy-tetrahydrofuran-2-yl]-methoxymethylphos-phonic acid]	100 to 1000	> 1000
C[C@@H](Nc1nc(Cl)nc2c1ccn2[C@@H]1O[C@H](CS(=O)(=O)CP(=O)(O)O)[C@@H](O)[C@H]1O)c1ccccc1F [Compound 168, [(2S,3S,4R,5R)-5-[2-chloro-4-[[(1R)-1-(2-fluorophenyl)ethyl]-amino]pyrrolo[2,3-d]-pyrimidin-7-yl]-3,4-dihydroxy-tetrahydro-furan-2-yl]methyl-sulfonylmethylphos-phonic acid]	< 10	< 10
C[C@@H](Nc1nc(Cl)nc2c1ccn2[C@@H]1O[C@H](CS(=O)(=O)CP(=O)(O)O)[C@@H](O)[C@H]1O)c1cccc(C#N)c1 [Compound 180, [(2S,3S,4R,5R)-5-[2-chloro-4-[[(1R)-1-(3-cyanophenyl)ethyl]-amino]pyrrolo[2,3-d]-pyrimidin-7-yl]-3,4-dihydroxy-tetrahydro-furan-2-yl]methyl-sulfonylmethylphos-phonic acid]	< 10	< 10

More lines, now with the values ahead:

IC50 (Human CD73) [nM]	IC50 [1] [nM]	Structure (SMILES)
< 10	< 10	O=P(O)(O)CS(=O)(=O)C[C@H]1O[C@@H](n2ccc3c(NC4CCC(F)(F)C4)nc(Cl)nc32)[C@H](O)[C@@H]1O (stereo partly drawn) [Compound 171, [(2S,3S,4R,5R)-5-[2-chloro-4-[(3,3-difluoro-cyclopentyl)amino]-pyrrolo[2,3-d]-pyrimidin-7-yl]-3,4-dihydroxy-tetrahydro-furan-2-yl]methyl-sulfonylmethylphos-phonic acid]
10 to 100	10 to 100	O=P(O)(O)COC[C@H]1O[C@@H](n2cnc3c(N4Cc5ccccc5C4)nc(Cl)nc32)[C@H](O)[C@@H]1O [Compound 54, [(2R,3S,4R,5R)-5-(2-chloro-6-isoindolin-2-yl-purin-9-yl)-3,4-dihydroxy-tetrahydro-furan-2-yl]methoxy-methylphosphonic acid]
< 10	< 10	C[C@@H](Nc1nc(C#N)nc2c1cnn2[C@@H]1O[C@H](CS(=O)(=O)CP(=O)(O)O)[C@@H](O)[C@H]1O)c1ccc(F)cc1 [Compound 291, [(2S,3S,4R,5R)-5-[6-cyano-4-[[(1R)-1-(4-fluorophenyl)ethyl]-amino]pyrazolo[3,4-d]-pyrimidin-1-yl]-3,4-dihydroxy-tetrahydro-furan-2-yl]methyl-sulfonylmethylphos-phonic acid]
< 10	< 10	O=P(O)(O)CS(=O)(=O)C[C@H]1O[C@@H](n2ccc3c(NC4CCCC4)nc(Cl)nc32)[C@H](O)[C@@H]1O [Compound 155, (((((2S,3S,4R,5R)-5-(2-chloro-4-(cyclopentylamino)-7H-pyrrolo[2,3-d]pyrimidin-7-yl)-3,4-dihydroxytetrahydrofuran-2-yl)methyl)sulfonyl)methyl)phosphonic acid]
< 10	< 10	C[C@@H](Nc1nc(C#N)nc2c1ccn2[C@@H]1O[C@H](COCP(=O)(O)O)[C@@H](O)[C@H]1O)c1ccccc1 [Compound 62, [(2R,3S,4R,5R)-5-[2-cyano-4-[[(1R)-1-phenylethyl]amino]pyrrolo[2,3-d]pyrimidin-7-yl]-3,4-dihydroxy-tetrahydrofuran-2-yl]methoxymethylphosphonic acid]
10 to 100	10 to 100	O=P(O)(O)CS(=O)(=O)C[C@H]1O[C@@H](n2ccc3c(N4CCCC4)nc(Cl)nc32)[C@H](O)[C@@H]1O [Compound 163, [(2S,3S,4R,5R)-5-(2-chloro-4-pyrrolidin-1-yl-pyrrolo[2,3-d]-pyrimidin-7-yl)-3,4-dihydroxy-tetrahydro-furan-2-yl]methyl-sulfonylmethylphos-phonic acid]
< 10	< 10	C[C@@H](O)C#Cc1nc(NC2CCCC2)c2ccn([C@@H]3O[C@H](COCP(=O)(O)O)[C@@H](O)[C@H]3O)c2n1 [Compound 267, [(2R,3S,4R,5R)-5-[4-(cyclopentylamino)-2-[(3R)-3-hydroxybut-1-ynyl]pyrrolo[2,3-d]-pyrimidin-7-yl]-3,4-dihydroxy-tetrahydro-furan-2-yl]methoxy-methylphosphonic acid]
< 10	< 10	C[C@@H](Nc1nc(C#N)nc2c1ccn2[C@@H]1O[C@H](COCP(=O)(O)O)[C@@H](O)[C@H]1O)c1ccc(C2CC2)cc1 [Compound 205, [(2R,3S,4R,5R)-5-[2-cyano-4-[[(1R)-1-(4-cyclopropylphenyl)-ethyl]amino]pyrrolo-[2,3-d]pyrimidin-7-yl]-3,4-dihydroxy-tetra-hydrofuran-2-yl]-methoxymethylphos-phonic acid]
< 10	< 10	O=P(O)(O)COC[C@H]1O[C@@H](n2ccc3c(N4CC5CC5C4)nc(Cl)nc32)[C@H](O)[C@@H]1O (stereo partly drawn) [Compound 105, [(2R,3S,4R,5R)-5-[4-(3-azabicyclo[3.1.0]-hexan-3-yl)-2-chloro-pyrrolo[2,3-d]-pyrimidin-7-yl]-3,4-dihydroxy-tetrahydro-furan-2-yl]methoxy-methylphosphonic acid]
< 10	< 10	N#Cc1nc(NC2CCCC2)c2cnn([C@@H]3O[C@H](CS(=O)(=O)CP(=O)(O)O)[C@@H](O)[C@H]3O)c2n1 [Compound 296, (((((2S,3S,4R,5R)-5-(6-cyano-4-(cyclopentylamino)-1H-pyrazolo[3,4-d]pyrimidin-1-yl)-3,4-dihydroxytetrahydrofuran-2-yl)methyl)sulfonyl)methyl)phosphonic acid]
< 10	< 10	O=P(O)(O)COC[C@H]1O[C@@H](n2ccc3c(N4CC5CCCC5C4)nc(Cl)nc32)[C@H](O)[C@@H]1O (stereo partly drawn) [Compound 103, [(2R,3S,4R,5R)-5-[4-(3,3a,4,5,6,6a-hexa-hydro-1H-cyclopenta-[c]pyrrol-2-yl)-2-chloro-pyrrolo[2,3-d]-pyrimidin-7-yl]-3,4-dihydroxy-tetrahydro-furan-2-yl]methoxy-methylphosphonic acid]
